The source of these data is patent US8937091B2 (Japan Science and Technology Agency, priority 2009, dated 2015).

Assay [1] concerns the target TGase (Cavia porcellus, UniProt P08587). It counts as biochemical. The following applies: for TG level: level with DMSO control designated as 100. Here is the method:
An enzyme reaction solution (0.1 ml) (100 mM HEPES-NaOH, pH 7.5, 1 mM CaCl2, 20 μM monodansyl cadaverine, 0.05 mg/ml N,N-dimethylcasein, 5 μg/ml TGase) was introduced into wells of a 96-well plate (Nunc, 96 Well Black Plate with Clear Bottom). A test compound was added in concentrations of 0.3, 1.0, 3.0, 10, and 30 μM. The solution and the compound were sufficiently mixed while preventing foaming. The plate was set in the fluorescence drug screening system FDSS 3000 (Hamamatsu Photonics K.K.). TGase-inhibiting activity of the compound was calculated by assaying changes in fluorescence wavelength (at 340 nm) per unit time. […] The assay level at which TGase activity decreased by half in the presence of the test compound was designated as TG 50.
Hereafter, the numerals in parentheses written after the TG level, the SOCE level, and the IICR level correspond to the test compound concentrations. The number following the name of each title compound used in the Examples below represents a compound ID number designated arbitrarily by the present inventors.

Assay [2] concerns SOCE (store operated calcium entry) in CHO cells. Put plainly: Assay of SOCE (store operated calcium entry)-inhibiting action. The class given is cell-based, Chinese hamster. The following applies: CHO cells, thapsigargin. A digest of the protocol: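 CHO cells in calcium-free BSS received compound, then 1 μM thapsigargin 2 min later to deplete stores; after 9 min, 2 mM calcium chloride (final) added. Percent inhibition of the rise in intracellular calcium determined at various compound concentrations.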

The test system of assay [3] is IICR (IP3 induced calcium release) in CHO cells. Put plainly: Assay of IICR (IP3 induced calcium release)-inhibiting action. The class given is cell-based, Chinese hamster. The following applies: for IICR level (percentage of inhibition): CHO cells, 10 μM ATP. A digest of the protocol: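 CHO cell medium replaced with calcium-containing BSS; compound added 1 min later, then 10 μM ATP after a further 2 min. Percent inhibition of the ATP-evoked rise in intracellular calcium determined at each compound concentration.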

Like-named read-outs stand apart in the source and are kept apart here.

Consider `O=C(CCNCCSSCCNCCC(=O)c1ccsc1)c1ccsc1` [Example 380], for which the values for the TG level in assay [1] (test compound 3 μmol) and in assay [1] (test compound 30 μmol) were 25 and 4.2, respectively. Also, the “SOCE level (percentage of inhibition)” value in assay [2] (test compound 10 μmol) is recorded as 4%; in assay [2] (test compound 30 μmol), 31%; in assay [2] (test compound 100 μmol), 70%. Moreover, the “IICR level (percentage of inhibition)” value is 10% in assay [3] (test compound 10 μmol), 76% in assay [3] (test compound 30 μmol) and 81% in assay [3] (test compound 100 μmol).

For `CC(C)(C)N(CCC(=O)c1cccnc1)Cc1ccccc1` [Example 8702, 2-(N-benzyl-t-butyl)aminoethyl-3-pyridylketone], the “TG-activity-inhibiting action or protein-crosslinking-inhibiting action (in words)” value in assay [1] is reported as “strongly”. Moreover, the “IICR-inhibiting activity compared with SOCE-inhibiting activity (in words)” value in assay [3] is “higher than SOCE-inhibiting activity”.

Turning to “2-(N-2-hydroxy-3-aminopropyl)aminoethyl-5-bromo-2-thienylketone [Example 8853]”, the “TG-activity-inhibiting action or protein-crosslinking-inhibiting action (in words)” value in assay [1] is reported as “strongly”. The “IICR-inhibiting activity compared with SOCE-inhibiting activity (in words)” value in assay [3] is “higher than SOCE-inhibiting activity”.

As for `CC(C)(C)N(CCC(=O)c1cccs1)Cc1ccccc1` [Example 8638, 2-(N-t-butylbenzyl)aminoethyl-2-thiophenylketone], the “TG-activity-inhibiting action or protein-crosslinking-inhibiting action (in words)” value in assay [1] is “strongly”. Further, the “IICR-inhibiting activity compared with SOCE-inhibiting activity (in words)” value in assay [3] is on record as “higher than SOCE-inhibiting activity”.

For `CC(C)N(CCC(=O)c1ccc(Br)s1)Cc1ccccc1` [Example 8768, 2-(N-isopropylbenzyl)aminoethyl-5-bromo-2-thienylketone], in assay [1], the “TG-activity-inhibiting action or protein-crosslinking-inhibiting action (in words)” value is reported as “strongly”. Further, the “IICR-inhibiting activity compared with SOCE-inhibiting activity (in words)” value in assay [3] is reported as “higher than SOCE-inhibiting activity”.

Regarding `Cc1ccsc1C(=O)CCN(Cc1ccccc1)C(C)(C)C` [Example 8816, 2-(N-benzyl-t-butyl)aminoethyl-3-methyl-2-thienylketone], the “TG-activity-inhibiting action or protein-crosslinking-inhibiting action (in words)” value in assay [1] is recorded as “strongly”. Besides, the “IICR-inhibiting activity compared with SOCE-inhibiting activity (in words)” value in assay [3] was “higher than SOCE-inhibiting activity”.

As to `CC(C)(C)N(CCC(=O)c1ccc(C#N)cc1)Cc1ccccc1` [Example 8789, 2-(N-t-butylbenzyl)aminoethyl-4-cyanophenylketone], the “TG-activity-inhibiting action or protein-crosslinking-inhibiting action (in words)” value in assay [1] was “strongly”. Moreover, the “IICR-inhibiting activity compared with SOCE-inhibiting activity (in words)” value in assay [3] was “higher than SOCE-inhibiting activity”.

Turning to `CC(C)N(CCC(=O)c1ccc(Cc2ccccc2)cc1)Cc1ccccc1` [Example 8285, 2-(N-isopropylbenzyl)aminoethyl-4-benzylphenylketone], the “TG-activity-inhibiting action or protein-crosslinking-inhibiting action (in words)” value in assay [1] was “strongly”. The “IICR-inhibiting activity compared with SOCE-inhibiting activity (in words)” value in assay [3] was “higher than SOCE-inhibiting activity”.

For the compound `CN(CCO)CCC(=O)c1ccco1` [Example 8707, 2-(N-2-hydroxyethylmethyl)aminoethyl-2-furylketone], the “TG-activity-inhibiting action or protein-crosslinking-inhibiting action (in words)” value in assay [1] is “strongly”. The “IICR-inhibiting activity compared with SOCE-inhibiting activity (in words)” value in assay [3] is “higher than SOCE-inhibiting activity”.

For the compound `Cc1ccc(C(=O)CCN(Cc2ccccc2)C(C)(C)C)o1` [Example 8405, 2-(N-benzyl-t-butyl)aminoethyl-5-methyl-2-furylketone], the “TG-activity-inhibiting action or protein-crosslinking-inhibiting action (in words)” value in assay [1] was “strongly”. The “IICR-inhibiting activity compared with SOCE-inhibiting activity (in words)” value in assay [3] was “higher than SOCE-inhibiting activity”.

Regarding `CC(C)N(CCC(=O)c1ccc(C#N)cc1)Cc1ccccc1` [Example 8803, 2-(N-benzylisopropyl)aminoethyl-4-cyanophenylketone], in assay [1], the “TG-activity-inhibiting action or protein-crosslinking-inhibiting action (in words)” value is on record as “strongly”. Also, in assay [3], the “IICR-inhibiting activity compared with SOCE-inhibiting activity (in words)” value is on record as “higher than SOCE-inhibiting activity”.

As to `O=C(CCN(CCO)Cc1ccccc1)c1cnccn1` [Example 8397, 2-(N-benzylhydroxyethyl)aminoethyl-2-pyrazylketone], the “TG-activity-inhibiting action or protein-crosslinking-inhibiting action (in words)” value in assay [1] is “strongly”. In addition, the “IICR-inhibiting activity compared with SOCE-inhibiting activity (in words)” value in assay [3] is on record as “higher than SOCE-inhibiting activity”.

Turning to `CN(CCC(=O)c1ccncc1)Cc1ccccc1` [Example 8673, 2-(N-methylbenzyl)aminoethyl-4-pyridylketone], the “TG-activity-inhibiting action or protein-crosslinking-inhibiting action (in words)” value in assay [1] is “strongly”. Moreover, the “IICR-inhibiting activity compared with SOCE-inhibiting activity (in words)” value in assay [3] is reported as “higher than SOCE-inhibiting activity”.

“2-(N-t-butylbenzyl)aminoethyl-5-bromo-2-thiophenylketone [Example 8778]”: in assay [1], the “TG-activity-inhibiting action or protein-crosslinking-inhibiting action (in words)” value is given as “strongly”. In addition, the “IICR-inhibiting activity compared with SOCE-inhibiting activity (in words)” value in assay [3] is “higher than SOCE-inhibiting activity”.

As to `Cc1ccc(C(=O)CCN(CCO)Cc2ccccc2)o1` [Example 8404, 2-(N-benzylhydroxyethyl)aminoethyl-5-methyl-2-furylketone], the “TG-activity-inhibiting action or protein-crosslinking-inhibiting action (in words)” value in assay [1] is on record as “strongly”. The “IICR-inhibiting activity compared with SOCE-inhibiting activity (in words)” value in assay [3] was “higher than SOCE-inhibiting activity”.

As to `CCc1nccnc1C(=O)CCN(Cc1ccccc1)C(C)C` [Example 8656, 2-(N-isopropylbenzyl)aminoethyl-2-(3-ethyl)-pyrazylketone], in assay [1], the “TG-activity-inhibiting action or protein-crosslinking-inhibiting action (in words)” value is on record as “strongly”. For the same compound, the “IICR-inhibiting activity compared with SOCE-inhibiting activity (in words)” value in assay [3] was “higher than SOCE-inhibiting activity”.

Turning to `CCN(CCC(=O)c1nccs1)Cc1ccccc1` [Example 8765, 2-(N-ethylbenzyl)aminoethyl-2-thiazolylketone], the “TG-activity-inhibiting action or protein-crosslinking-inhibiting action (in words)” value in assay [1] is reported as “strongly”. Moreover, the “IICR-inhibiting activity compared with SOCE-inhibiting activity (in words)” value in assay [3] is “higher than SOCE-inhibiting activity”.

Consider `CCC(C)N(CCC(=O)c1ccc(Br)s1)C(C)CC` (stereo not shown) [Example 8849, 2-(N,N-di-sec-butyl)aminoethyl-5-bromo-2-thienylketone], for which the “TG-activity-inhibiting action or protein-crosslinking-inhibiting action (in words)” value in assay [1] was “strongly”. In addition, the “IICR-inhibiting activity compared with SOCE-inhibiting activity (in words)” value in assay [3] is “higher than SOCE-inhibiting activity”.

Regarding `Cc1nc(C)c(C(=O)CCN(Cc2ccccc2)C(C)C)s1` [Example 8666, 2-(N-benzylisopropyl)aminoethyl-5-(2,4-dimethylthiazolyl)ketone], in assay [1], the “TG-activity-inhibiting action or protein-crosslinking-inhibiting action (in words)” value is given as “strongly”. The “IICR-inhibiting activity compared with SOCE-inhibiting activity (in words)” value in assay [3] is given as “higher than SOCE-inhibiting activity”.

Consider `CC(C)N(CCC(=O)c1ccco1)Cc1ccccc1` [Example 8370, 2-(N-isopropylbenzyl)aminoethyl-2-furylketone], for which the “TG-activity-inhibiting action or protein-crosslinking-inhibiting action (in words)” value in assay [1] is “strongly”. Also, the “IICR-inhibiting activity compared with SOCE-inhibiting activity (in words)” value in assay [3] is given as “higher than SOCE-inhibiting activity”.

As for `CC(C)N(CCC(=O)c1cc2ccccc2s1)Cc1ccccc1` [Example 8759, 2-(N-isopropylbenzyl)aminoethyl-2-benzothienylketone], the “TG-activity-inhibiting action or protein-crosslinking-inhibiting action (in words)” value in assay [1] is given as “strongly”. Further, the “IICR-inhibiting activity compared with SOCE-inhibiting activity (in words)” value in assay [3] is listed as “higher than SOCE-inhibiting activity”.

Take `CCN(CCC(=O)c1ccco1)Cc1ccccc1` [Example 8412, 2-(N-benzylethyl)aminoethyl-2-furylketone]: the “TG-activity-inhibiting action or protein-crosslinking-inhibiting action (in words)” value in assay [1] is “strongly”. Besides, in assay [3], the “IICR-inhibiting activity compared with SOCE-inhibiting activity (in words)” value was “higher than SOCE-inhibiting activity”.

In the case of `Cc1csc(C(=O)CCN(Cc2ccccc2)C(C)(C)C)c1` [Example 8817, 2-(N-benzyl-t-butyl)aminoethyl-4-methyl-2-thienylketone], the “TG-activity-inhibiting action or protein-crosslinking-inhibiting action (in words)” value in assay [1] is “strongly”. Moreover, in assay [3], the “IICR-inhibiting activity compared with SOCE-inhibiting activity (in words)” value is reported as “higher than SOCE-inhibiting activity”.

For the compound `CC(C)(C)N(CCC(=O)c1nccs1)Cc1ccccc1` [Example 8729, 2-(N-benzyl-t-butyl)aminoethyl-2-thiazolylketone], the “TG-activity-inhibiting action or protein-crosslinking-inhibiting action (in words)” value in assay [1] is “strongly”. Moreover, in assay [3], the “IICR-inhibiting activity compared with SOCE-inhibiting activity (in words)” value is “higher than SOCE-inhibiting activity”.

Consider `CC(C)(C)N(CCC(=O)c1ccc(Cl)s1)Cc1ccccc1` [Example 8756, 2-(N-t-butylbenzyl)aminoethyl-5-chloro-2-thienylketone], for which the “TG-activity-inhibiting action or protein-crosslinking-inhibiting action (in words)” value in assay [1] is given as “strongly”. The “IICR-inhibiting activity compared with SOCE-inhibiting activity (in words)” value in assay [3] was “higher than SOCE-inhibiting activity”.

Consider `CCCCN(CCCC)CCC(=O)c1ccc(Br)s1` [Example 8848, 2-(N,N-di-n-butyl)aminoethyl-5-bromo-2-thienylketone], for which the “TG-activity-inhibiting action or protein-crosslinking-inhibiting action (in words)” value in assay [1] is “strongly”. Also, the “IICR-inhibiting activity compared with SOCE-inhibiting activity (in words)” value in assay [3] is “higher than SOCE-inhibiting activity”.
